“Also recorded” adds a separate entry of the source.
How the values were obtained:
[1] = system: K18-PL acetylation in QBI-293 cells; assay: Cell-based K18-PL acetylation assay in QBI-293 cells; details: C646 to block CBP/p300, 3MA-induced acetylation, overnight
[2] = system: 2N4R-tau and tau-K18 auto-acetylation activity; assay: Tau acetyltransferase inhibition studies (pre-incubation with cysteine blocking agents, tubulin or microtubules); type: biochemical; details: pre-incubated with 0.5 mM NEM or 4 mM IA
Experimental: FIG. 14, comprising FIGS. 14a-14c, is a series of images depicting the results of experiments showing that cysteine blocking agents inhibit tau-mediated acetyltransferase activity. […] FIG. 14c is an image showing bovine brain derived microtubule associated protein (MAP-rich) fractions containing all CNS tau isoforms that were evaluated in acetyltransferase assays in the presence of increased tubulin concentrations followed by immunoblotting with Ac-K280 and total tau (T46) antibodies.
Acetyltransferase assays using purified tau proteins were performed as previously described and subjected to autoradiography or immunoblotting using the following anti-tau antibodies: anti-tau polyclonal (Dako, A0024, 1:10,000), anti-acetyl lysine (Cell Signaling, #9441, 1:1000), anti-tau monoclonal (T46, 1:1000), anti-mouse tau (T49, 1:1000), anti-acetylated tau (Ac-K280, 1:1000), anti-acetylated tau (Ac-K369, 1:1000). For tau acetyltransferase inhibition studies, tau proteins were pre-incubated with 0.5 mM N-ethyl-maleimide (NEM), 4 mM iodoacetamide (IA), or increasing concentrations of either tubulin (5-10 μM) or pre-formed microtubules (5 μM). […] Reaction products were readily distinguished between 2N4R-tau (Mr ˜65 kD) and tau-K18 (Mr ˜15 kD) by immunoblotting using acetylated tau (Ac-K280) and total tau (E10) antibodies. […]

[3] = system: HDAC6; assay: HDAC6 siRNA in HEK-T40 cells, immunoblotting; type: cell-based, human
Experimental: FIG. 7, comprising FIG. 7A through FIG. 7D, depicts the results of experiments which illustrate the characterization of the ac-K280 site-specific acetylated tau antibody. FIG. 7A illustrates the results of an experiment where recombinant WT-K18 or ΔK280-K18 proteins (1 μg) were incubated in the presence or absence of acetyl-CoA or CBP as indicated and K280 acetylation was determined by immunoblotting using anti-ac-K280 and a polyclonal antibody raised to exon 10 of tau protein (E10). FIG. 7B illustrates the results of an experiment where QBI-293 cells were co-transfected with WT-T40 tau or ΔK280-T40 mutant tau expression plasmids along with CBP to promote tau acetylation. 1, 2, and 5 μg total cell lysates were analyzed by western blotting using anti-ac-K280, total tau (T46), and GAPDH antibodies. […] Scale bar represents 50 μm. FIG. 7D illustrates the results of an experiment where control or HDAC6 siRNA expressing HEK-T40 cells were analyzed by immunoblotting using ac-K280, total tau, HDAC6, and GAPDH antibodies.
The longest human tau isoform (designated Tau-T40) was cloned into pCDNA5/TO vector (Invitrogen) and site-directed mutagenesis (Quikchange kit; Stratagene) was used to create K→Q or K→R mutations at residues K163, K280, K281, K369 as indicated. Indicated plasmids were transfected into either QBI-293 cells or stably expressing HEK-T40 cells using Fugene (Roche). […]

[4] = Heparin-induced tau fibrillization assay quantified by Thioflavin-T binding; type: biochemical; details: 10 μM tau proteins, 10 μM heparin, 4-h incubation
Experimental: (§1) Recombinant full-length T40, 4R-tau MT-binding domain K18, or tau fibrils were acetylated by incubation with [^14C]-labeled acetyl-CoA in the presence or absence of CBP. FIG. 1A illustrates that the reaction products were analyzed by SDS-PAGE and Coomassie blue staining followed by overnight radiographic exposure using STORM phosphor-imager software. FIG. 1B depicts the results of an experiment where T40 or K18 proteins were incubated with acetyl-CoA and/or recombinant CBP and reaction products were subjected to immunoblot analysis using a polyclonal anti-tau-specific antibody for MT repeat domain (E10) and an anti-acetyl-lysine antibody. FIG. 1C is a graph depicting the MT assembly activities of K18 proteins as evaluated in light-scattering assays. Tubulin monomers (30 μM) were mixed with 40 μM tau proteins in MT assembly buffer supplemented with 2 mM guanosine triphosphate. MT assembly was determined by monitoring absorbance every minute at 350 nm using a SpectraMax plate reader. […] FIG. 1D is a graph illustrating the results of experiments where Tau proteins (10 μM) were evaluated in fibrillization reactions using 10 μM heparin to induce assembly. […] Samples were analysed by SDS-PAGE and Coomassie staining to monitor fibril formation. FIG. 1F illustrates the results of experiments where four-hour time points from fibrillization reactions were analysed by negative-staining EM. […]
Tau K18 protein was either mock acetylated or acetylated in vitro using acetyl-CoA substrate as indicated elsewhere herein. […] Protein concentrations were determined using the bicinchoninic acid protein assay (Pierce) with bovine serum albumin as the standard. Acetylated K18 and mock-treated K18 were assessed by a light-scattering assay as described elsewhere herein. […] The extent of fibrillization was assessed at different time points by ThT fluorescence assay, sedimentation analysis and negative staining EM as described elsewhere herein. For ThT fluorescence assay, ThT diluted in 100 mM glycine buffer (pH 8.5) was added and fluorometric readings were taken at 450 nm (excitation) and 510 nm (emission). […]

[5] = system: tubulin; assay: MT assembly light-scattering assay; type: biochemical; details: 30 μM tubulin, 40 μM tau proteins, 2 mM GTP
Experimental: as §1

[6] = system: tau-K18 acetyltransferase activity (auto-acetylation); assay: Tau auto-acetylation filter binding assay, kinetic analysis; type: biochemical; details: tau-K18 proteins containing sequential deletions
Experimental: (§2) Reactions were assembled in 50 μl of reaction buffer containing 50 mM Tris pH 8.0, 100 μM EDTA, and 10% glycerol. Unless specifically noted, reactions contained 25 μM of either WT tau-K18 or tau-K18-2CA mutant. The reactions were initiated by the addition of [^3H]-acetyl-CoA (2.35 Ci mmol^−1, Perkin Elmer) at concentrations ranging from 2.5 μM to 1 mM, incubated at 37° C., and allowed to proceed for 1 hr (unless otherwise noted). Reactions were stopped by the addition of 10 μl of 3 mM CoA, and 25 μl of the reaction was then spotted to a P81 filter paper (Whatman), washed in 10 mM HEPES pH 7.5 three times, and dried using acetone. Incorporated [^3H]-acetyl-CoA was then measured using the Perkin Elmer Tri-Carb 2800TR Liquid Scintillation Analyzer, and the molar amount of acetyl groups incorporated into tau were calculated from a standard curve of the radiolabeled acetyl-CoA.

[7] = molecular target: T1, tau-K18 acetyltransferase activity (auto-acetylation) (Homo sapiens, UniProt P10636); assay: as above; type: biochemical
T1 construct: made in house
T1 sequence (P10636 561-689 limits assumed): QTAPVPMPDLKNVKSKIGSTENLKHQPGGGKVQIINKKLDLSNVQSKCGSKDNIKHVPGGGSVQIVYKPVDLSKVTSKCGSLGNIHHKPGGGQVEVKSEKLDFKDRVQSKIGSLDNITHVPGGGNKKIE
Experimental: as §2

CC1=NN(c2ccc(C(=O)O)cc2)C(=O)/C1=C\c1ccc(-c2cc(C)c(C)cc2[N+](=O)[O-])o1 [C646]
K18-PL acetylation levels [1]: no effect on K18-PL acetylation levels

CCN1C(=O)C=CC1=O [N-ethyl-maleimide]
2N4R-tau or tau-K18 auto-acetylation activity after pretreatment [2]: abrogation of 2N4R-tau or tau-K18 auto-acetylation activity; also recorded: minimal acetyltransferase activity

NC(=O)CI [iodoacetamide]
2N4R-tau or tau-K18 auto-acetylation activity after pretreatment [2]: abrogation of 2N4R-tau or tau-K18 auto-acetylation activity; also recorded: minimal acetyltransferase activity

HDAC6 small interfering RNA: HDAC6 siRNA (Invitrogen) 5′-AAAGUUGGAACUCUCACGGUGCAGC-3′ (SEQ ID NO: 1) (listed as RNA, chemistry not given here)
levels of ac-K280 [3]: increased levels of ac-K280

tau-K18: recombinant tau fragment encompassing all four MT-binding repeats
fibrillization (ThT) [4]: did not fibrillize during the 4-h incubation period | MT assembly (absorbance at 350 nm) [5]: promoted tubulin assembly into MTs | Km [6]: 147 µM | Kcat [auto] ([7]; auto-acetylation, this study): 8.3e-05 s⁻¹ | Km ([7]; auto-acetylation, this study, read-out: Km AcCoA [auto]): 147 µM | turnover rate Kcat ([7]; saturation plot against acetyl-CoA concentration): 8.3e-05 s⁻¹
